Assay results as given in paper PMC4421842 (Nature Communications, 2015).
≈ marks a conversion by molar mass, not a printed value. Where “and” joins values, the source holds several entries; their conditions need not be identical. Identical values can stand only once. Entries after “also recorded” stand apart in the source; their conditions may differ. Like-named read-outs stand apart in the source and are kept apart here.

Key:
MRSA clinical isolates = test: microbe, parasite or virus in culture; type: cell-based, S. aureus; settings: for MIC: Staphylococcus aureus, MRSA
Summary of the method: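 Broth microdilution per CLSI guidelines in Mueller Hinton broth, run in triplicate against clinical MRSA isolates.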

S. aureus (ATCC 29213) = test: Resistant mutant generation (resistance frequency); type: cell-based; settings: development of DNM resistance in high-level CIP-resistant strains
E. coli = test: microbe, parasite or virus in culture; type: cell-based; settings: Escherichia coli, ATCC25922, E. coli ATCC 25922; gyrA none, parC none
Excerpt: (§1) MRSA and P. aeruginosa isolates were from Cubist Pharmaceuticals (Lexington, MA). VRE isolates were from a previously published collection. E. coli strains were obtained either from ATCC or Professor Cari Vanderpool (UIUC). A. baumannii isolates were obtained from Dr John Quale[51].
(§2) Mueller Hinton (MH) broth was used.

[1] = Tolerability in mice (maximal tolerated dose); type: in vivo
Protocol: (§3) The animal studies (PK, in-vivo toxicity and in-vivo efficacy) were carried out in strict accordance with the recommendations in the Guide for the Care and Use of Laboratory Animals of the National Institutes of Health. […] In these studies, 10- to 12-week-old female C57BL/6 mice purchased from Charles River were used. DNM, DNM-2 and DNM-3 were formulated as slurries at 8.3 mg ml^−1 in 25% Cremophor RH40/water (v/v). Before beginning the pharmacokinetic assessment, mice were first tested for their ability to tolerate the DNM, DNM-2 and DNM-3 at 50 mg kg^−1 (p.o.). […] At specified time points, mice were killed and blood was collected, centrifuged and the serum was frozen at −80 °C until analysis. The proteins in a 50-μl aliquot of serum were precipitated by the addition of 50 μl of acetonitrile and the sample was centrifuged to remove the proteins. Serum concentrations of DNM, DNM-2 and DNM-3 were determined by HPLC. PK parameters were determined using GraphPad Prism Version 5.00 for Windows.

[2] = tested on: FQR S. aureus (NRS3, FQR); test: MIC, microdilution broth assay, FQR MRSA NRS3; type: cell-based; settings: NRS3, S84L GyrA and S80F ParC, three independent replicates
E. faecium = test: microbe, parasite or virus in culture; type: cell-based; settings: Enterococcus faecium, E. faecium
VRE clinical isolates = test: MIC, VRE clinical isolates panel (summary by GyrA mutation); type: cell-based, Enterococcus; settings: for MIC: Enterococcus, VRE
Excerpt: as §1, §2

S83R E. coli DNA gyrase = target: T1, S83R E. coli DNA gyrase (Escherichia coli, UniProt P0AES4+P0AES6, S83R); type: biochemical; settings: DNA cleavage assay
T1 construct: His tag (pTRCHisA vector; purified on Ni-NTA); made in house; host or cells: E. coli One Shot BL21 Star (DE3)

E. faecalis = test: microbe, parasite or virus in culture; type: cell-based; settings: E. faecalis
P. aeruginosa = test: MIC, microdilution broth, P. aeruginosa; type: cell-based
Excerpt: as §1, §2

WT E. coli DNA gyrase = target: T2, WT E. coli DNA gyrase (Escherichia coli, UniProt P0AES4+P0AES6); type: biochemical; settings: DNA cleavage assay
T2 construct: His tag (pTRCHisA vector; purified on Ni-NTA); made in house; host or cells: E. coli One Shot BL21 Star (DE3)

[3] = tested on: normal (that is, non-cancerous) cell lines; set-up: method as in PMID 10993200; settings: previously published data; cited from earlier work
Ent. Spp. = test: MIC, microdilution broth, Ent. Spp. VRE clinical isolate; type: cell-based; settings: Enterococcus, C28036, gyrA Ser83Ile, parC Ser80Ile
Excerpt: as §1, §2

[4] = Pharmacokinetic assessment; type: in vivo, C57BL/6 mice; settings: for Cmax: female, C57BL/6, mouse
Protocol: as §3

[5] = tested on: WT S. aureus (ATCC 29213, WT); test: microbe, parasite or virus in culture; type: cell-based; settings: WT GyrA and WT ParC, three independent replicates
[6] = tested on: resistant strains of ATCC 29213; test: microbe, parasite or virus in culture; type: cell-based, S. aureus; settings: Staphylococcus aureus
A. baumannii = test: MIC, microdilution broth, A. baumannii; type: cell-based
Excerpt: as §1, §2

physchem = settings: pH 7.4
Protocol: Three independent replicates of each compound were performed.

Work on `Cc1cc(=O)n(C)c2c3c4c(cc12)c(C)cc(=O)n4CO3` [DNM, deoxynybomycin] yielded an MIC (MRSA clinical isolates; strain SAU.1118, read-out: MIC) of 1 µg/mL (≈ 3.54 µM), an MIC (MRSA clinical isolates; strain SAU.2996, read-out: MIC) of 0.25 µg/mL (≈ 0.886 µM) and an MIC (MRSA clinical isolates; strain SAU.3017, read-out: MIC) of 1 µg/mL (≈ 3.54 µM). The MIC (MRSA clinical isolates; strain SAU.3021, read-out: MIC) was 0.031 µg/mL (≈ 0.11 µM), the MIC (MRSA clinical isolates; strain SAU.3025, read-out: MIC) was 0.031 µg/mL (≈ 0.11 µM) and the MIC (MRSA clinical isolates; strain SAU.419, read-out: MIC) was 0.125 µg/mL (≈ 0.443 µM). The MIC (MRSA clinical isolates; strain SAU.42, read-out: MIC) was 1 µg/mL (≈ 3.54 µM), the MIC (MRSA clinical isolates; strain SAU.446, read-out: MIC) was 0.25 µg/mL (≈ 0.886 µM) and the MIC (MRSA clinical isolates; strain SAU.447) was 0.063 µg/mL (≈ 0.223 µM). For the same compound, the MIC (MRSA clinical isolates; strain SAU.492, gyrA Ser84Leu, parC Ser80Tyr) was 0.063 µg/mL (≈ 0.223 µM), the MIC (MRSA clinical isolates; strain SAU.493, gyrA Ser84Leu, parC Ser80Phe) was 0.063 µg/mL (≈ 0.223 µM) and the MIC (MRSA clinical isolates; strain SAU.494, gyrA Ser84Leu, parC Ser80Phe) was 0.063 µg/mL (≈ 0.223 µM). The MIC (MRSA clinical isolates; strain SAU.495, gyrA Ser84Leu, parC Ser80Phe) was 0.063 µg/mL (≈ 0.223 µM), the MIC (MRSA clinical isolates; strain SAU.496, gyrA Ser84Leu, parC Ser80Phe) was 0.063 µg/mL (≈ 0.223 µM) and the MIC (MRSA clinical isolates; strain SAU.555, read-out: MIC) was 0.125 µg/mL (≈ 0.443 µM). It also gave an MIC (MRSA clinical isolates; strain SAU.708, gyrA Ser84Leu, parC Ser80Phe Glu84Lys) of 0.063 µg/mL (≈ 0.223 µM), an MIC (MRSA clinical isolates; strain SAU.709, gyrA Ser84Leu, parC Ser80Tyr Glu84Gly) of 0.063 µg/mL (≈ 0.223 µM) and an MIC (MRSA clinical isolates; strain SAU.846, read-out: MIC) of 0.031 µg/mL (≈ 0.11 µM). For the same compound, the “Sensitivity of MRSA clinical isolates” value (MRSA clinical isolates; panel of MRSA clinical isolates (n=21)) was “sensitive”, the resistance frequencies (S. aureus (ATCC 29213)) was 1 × 10^−10 to 7 × 10^−10 and the MIC (E. coli) was over 4 µg/mL. For the same compound, the tolerability ([1]; increasing doses, highest dose evaluated 50 mg kg^−1 by oral gavage) was “well tolerated up to the highest dose evaluated”, the maximal tolerated dose ([1]; oral gavage) was over 50 mg/kg and the “MIC against S. aureus NRS3” value [2] was 0.03 µg/mL (≈ 0.106 µM). For the same compound, the MIC ([2]; Staphylococcus aureus, read-out: MIC against S. aureus NRS3) was 0.03 µg/mL (≈ 0.106 µM), the MIC (E. faecium; C21190, gyrA Ser83 Arg, parC Ser80Ile) was over 1 µg/mL and the MIC (E. faecium; C27282, gyrA Ser83 Arg, parC Ser80Arg) was over 1 µg/mL. For the same compound, the MIC (E. faecium; S34, gyrA Ser83Ile, parC Ser80 Arg) was 1 µg/mL (≈ 3.54 µM), the MIC (E. faecium; S226, gyrA Ser83Ile, parC Ser80Ile) was 0.25 µg/mL (≈ 0.886 µM) and the MIC (E. faecium; S235, gyrA Ser83Ile, parC Ser80Ile) was 0.125 µg/mL (≈ 0.443 µM). It also gave an MIC (E. faecium; S344, gyrA Ser83Ile, parC Ser80Ile) of 0.25 µg/mL (≈ 0.886 µM), an MIC (E. faecium; S557, gyrA Ser83Ile, parC Ser80Ile) of 0.25 µg/mL (≈ 0.886 µM) and an MIC (E. faecium; U63, gyrA Ser83 Arg, parC Ser80Ile) of 1 µg/mL (≈ 3.54 µM). It also gave an MIC (E. faecium; U275, gyrA Ser83Cys Glu87Gly, parC Ser80Ile) of 1 µg/mL (≈ 3.54 µM), an MIC (E. faecium; U464, gyrA Ser83 Arg, parC Ser80Ile) of 1 µg/mL (≈ 3.54 µM) and an MIC (E. faecium; U503, gyrA Ser83 Arg, parC Ser80Ile) of over 1 µg/mL. It also gave an MIC (E. faecium; U563, gyrA Ser83 Arg, parC Ser80Ile) of over 1 µg/mL, an MIC (VRE clinical isolates; VRE harbouring the S83I mutation in GyrA) of 0.125 to 1 µg/mL (≈ 0.443 to 3.54 µM) and an MIC (VRE clinical isolates; VRE with the S83R mutation in GyrA) of at least 1 µg/mL. For the same compound, the “Sensitivity of VRE clinical isolates” value (VRE clinical isolates; panel of VRE clinical isolates (n=22)) was “sensitive”, the “inhibition of S83R DNA gyrase” value (S83R E. coli DNA gyrase) was “buildup of OC DNA similar to that seen with S83L DNA gyrase only at a slightly higher concentration or longer time points” and the MIC (E. faecalis; ATCC 29212, gyrA WT, parC WT) was over 1 µg/mL. The MIC (E. faecalis; Enterococcus faecalis, ATCC19433, ATCC 19433, gyrA WT, parC WT) was over 1 µg/mL, the MIC (E. faecalis; Enterococcus faecalis, ATCC29212, ATCC 29212, gyrA WT, parC WT) was over 1 µg/mL and the MIC (E. faecalis; Enterococcus faecalis, S206, gyrA Ser83 Arg, parC Ser80Ile) was 1 µg/mL (≈ 3.54 µM). The “activity against wild-type (WT) or FQR P. aeruginosa” value (P. aeruginosa) was “no detectable activity”, the MIC (P. aeruginosa; PA1586 (CIP resistant clinical isolate)) was over 4 µg/mL and the MIC (P. aeruginosa; Pseudomonas aeruginosa, P. aeruginosa PAO1, read-out: MIC) was over 4 µg/mL. For the same compound, the MIC (P. aeruginosa; Pseudomonas aeruginosa, read-out: MIC) was over 4 µg/mL, the “inhibition of WT DNA gyrase (increase in L or OC DNA)” value (WT E. coli DNA gyrase) was “poor inhibitors of WT DNA gyrase” and the “toxicity to normal (non-cancerous) cell lines” value [3] was “non-toxic”. The MIC (Ent. Spp.) was 0.25 µg/mL (≈ 0.886 µM), the Cmax ([4]; C57/BL6 mice, 50 mg kg-1 oral gavage, serum, read-out: Cmax) was under 60 ng/mL and the Cmax ([4]; mice, 50 mg kg^−1 oral dose, serum, read-out: Cmax (peak serum concentration)) was under 200 nM. For the same compound, the “oral bioavailability / serum exposure” value ([4]; mice, 50 mg kg^−1 oral dose) was “very low serum exposure; also recorded: not absorbed to any appreciable degree”, the “Cmax (peak serum concentration)” value ([4]; mice, 50 mg kg^−1 oral dose, serum) was under 60 ng/mL and the “MIC against S. aureus 29213” value ([5]; ATCC 29213) was “modest activity and 2 μg ml^−1”. It also gave an MIC ([5]; Staphylococcus aureus, ATCC29213, ATCC 29213, read-out: MIC against S. aureus 29213) of over 1 µg/mL, an MIC ([6]; ATCC29213, high-level CIP-resistant strains, second step, S84L mutation in GyrA) of 0.03 to 0.06 µg/mL (≈ 0.106 to 0.213 µM) and an MIC ([6]; ATCC29213, low-level CIP-resistant strains, first step, WT gyrA, mutation in ParC (for example E84K or S80F)) of over 1 µg/mL. The MIC ([6]; ATCC29213, resistance cycle strain, WT gyrA, WT parC (Fig. 4a)) was over 1 µg/mL, the “activity against wild-type (WT) or FQR Acinetobacter baumannii” value (A. baumannii) was “no detectable activity” and the MIC (A. baumannii; A. baumannii KB304, gyrA S83L) was over 4 µg/mL. For the same compound, the MIC (A. baumannii; Acinetobacter baumannii) was over 4 µg/mL, the MIC (A. baumannii; Acinetobacter baumannii, ATCC19606, A. baumannii ATCC 19606, read-out: MIC) was over 4 µg/mL and the solubility at 1 h (physchem) was 9 µM (≈ 2.54 µg/mL).
